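Each compound was tested at five concentrations against cells in 96-well plates for 48 hours. GI50 marks 50% less growth.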 Calls of active or inactive are those of the source. Cut-off read from the data, not from the text of the source: active = GI50 up to about 1.1 µM and inactive = higher.
Columns and labels:
Assay in all cases: growth of human tumour cells (NCI), 48 h
[1] = tested on: 786-0
[2] = tested on: CCRF-CEM
[3] = tested on: DU-145
[4] = tested on: HCC 2998
[5] = tested on: HL-60
[6] = tested on: K562
[7] = tested on: M14
[8] = tested on: MCF7
[9] = tested on: MDA-MB-231
[10] = tested on: NCI-H226
[11] = tested on: NCI-H23
[12] = tested on: NCI/ADR-RES
[13] = tested on: OVCAR-8
[14] = tested on: SK-OV-3
[15] = tested on: SNB-19
[16] = tested on: SR
[17] = tested on: SW-620
[18] = tested on: T47D
[19] = tested on: TK-10
[20] = tested on: UACC-257

Cc1cc(-c2nc3ccccc3s2)ccc1N
GI50 [1]: 57.8 µM (inactive) | GI50 [2]: 9.44 µM (inactive) | GI50 [3]: 46.6 µM (inactive) | GI50 [4]: 5.98 µM (inactive) | GI50 [5]: 15.7 µM (inactive) | GI50 [6]: 38.8 µM (inactive) | GI50 [7]: 36.8 µM (inactive) | GI50 [8]: < 0.0133 µM (active) | GI50 [9]: 38.6 µM (inactive) | GI50 [10]: 8.67 µM (inactive) | GI50 [11]: 40.4 µM (inactive) | GI50 [12]: 57.4 µM (inactive) | GI50 [13]: 61.5 µM (inactive) | GI50 [14]: 55.5 µM (inactive) | GI50 [15]: > 70.1 µM (inactive) | GI50 [16]: 25.6 µM (inactive) | GI50 [17]: > 72.4 µM (inactive) | GI50 [18]: 0.0322 µM (active) | GI50 [19]: 0.0302 µM (active) | GI50 [20]: 81.5 µM (inactive)

O=[N+]([O-])c1ccc(S(=O)(=O)Cc2ccccc2)c([N+](=O)[O-])c1
GI50 [1]: 1.58 µM (inactive) | GI50 [2]: 0.17 µM (active) | GI50 [3]: 3.63 µM (inactive) | GI50 [4]: 7.43 µM (inactive) | GI50 [5]: 1.91 µM (inactive) | GI50 [6]: 1.13 µM (inactive) | GI50 [7]: 1.87 µM (inactive) | GI50 [8]: 1.87 µM (inactive) | GI50 [9]: 2.11 µM (inactive) | GI50 [10]: 21.9 µM (inactive) | GI50 [11]: 1.9 µM (inactive) | GI50 [12]: 3.21 µM (inactive) | GI50 [13]: 1.89 µM (inactive) | GI50 [14]: 6.78 µM (inactive) | GI50 [15]: 17.6 µM (inactive) | GI50 [16]: 0.247 µM (active) | GI50 [17]: 1.51 µM (inactive) | GI50 [18]: 1.35 µM (inactive) | GI50 [19]: 1.88 µM (inactive) | GI50 [20]: 1.67 µM (inactive)

O=c1[nH]/c(=C/c2ccc(OCc3ccccc3)cn2)c(=O)[nH]/c1=C/c1ccc(Cl)cc1
GI50 [1]: 1.83 µM (inactive) | GI50 [2]: 3.72 µM (inactive) | GI50 [3]: > 23.9 µM (inactive) | GI50 [4]: 2.52 µM (inactive) | GI50 [5]: 0.726 µM (active) | GI50 [6]: 0.497 µM (active) | GI50 [7]: 1.87 µM (inactive) | GI50 [8]: 0.546 µM (active) | GI50 [9]: 46.1 µM (inactive) | GI50 [10]: 35.1 µM (inactive) | GI50 [11]: 7.87 µM (inactive) | GI50 [12]: 5.37 µM (inactive) | GI50 [13]: > 100 µM (inactive) | GI50 [14]: 4.47 µM (inactive) | GI50 [15]: 5.55 µM (inactive) | GI50 [16]: 0.301 µM (active) | GI50 [17]: 1.55 µM (inactive) | GI50 [18]: > 100 µM (inactive) | GI50 [19]: 15.1 µM (inactive) | GI50 [20]: 1 µM (active)
